Experimental data as given in ChEMBL document CHEMBL5465560, “Selectivity Literature for EUbOPEN Chemogenomic Library” (2024).

Key:
[1] = biological target: Angiopoietin-1 receptor (Homo sapiens) (UniProt Q02763); experiment: Selectivity interaction (KinomeScan (DiscoverX)) EUB0000229b TEK; details: at 10 µM
[2] = biological target: T1, Mitogen-activated protein kinase kinase kinase kinase 3 (Homo sapiens) (UniProt Q8IVH8); experiment: Selectivity interaction (LanthaScreen Eu Kinase Binding Assay) EUB0001632a MAP4K3; details: at 10 µM
T1 sequence (whole entry): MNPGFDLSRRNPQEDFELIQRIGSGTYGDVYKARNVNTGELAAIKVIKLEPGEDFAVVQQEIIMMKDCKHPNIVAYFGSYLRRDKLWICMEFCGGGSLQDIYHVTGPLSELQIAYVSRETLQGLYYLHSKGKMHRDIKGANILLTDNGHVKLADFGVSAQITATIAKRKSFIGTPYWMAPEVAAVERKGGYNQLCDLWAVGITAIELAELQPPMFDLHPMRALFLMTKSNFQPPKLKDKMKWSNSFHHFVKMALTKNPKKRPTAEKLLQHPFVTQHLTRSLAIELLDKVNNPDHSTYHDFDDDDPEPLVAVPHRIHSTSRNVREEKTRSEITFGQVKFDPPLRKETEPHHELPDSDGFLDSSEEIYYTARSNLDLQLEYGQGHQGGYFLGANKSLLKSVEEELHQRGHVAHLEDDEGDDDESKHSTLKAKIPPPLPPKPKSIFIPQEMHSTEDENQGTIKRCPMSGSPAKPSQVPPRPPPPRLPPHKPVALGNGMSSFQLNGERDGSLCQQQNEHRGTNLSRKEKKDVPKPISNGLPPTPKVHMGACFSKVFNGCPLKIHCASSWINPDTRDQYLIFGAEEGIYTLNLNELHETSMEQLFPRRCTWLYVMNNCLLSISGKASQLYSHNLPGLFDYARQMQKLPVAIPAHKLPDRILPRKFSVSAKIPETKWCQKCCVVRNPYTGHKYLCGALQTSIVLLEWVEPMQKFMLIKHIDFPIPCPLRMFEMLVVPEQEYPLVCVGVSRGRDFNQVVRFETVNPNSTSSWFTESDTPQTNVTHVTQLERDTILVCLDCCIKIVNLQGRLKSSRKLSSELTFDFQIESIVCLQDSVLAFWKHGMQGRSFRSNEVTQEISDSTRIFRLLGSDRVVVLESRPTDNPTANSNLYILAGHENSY

[3] = biological target: Phosphatidylinositol 4-phosphate 5-kinase type-1 alpha (Homo sapiens) (UniProt Q99755); experiment: Selectivity interaction (KinomeScan (DiscoverX)) EUB0001049a PIP5K1A; details: at 1 µM
[4] = biological target: Tyrosine-protein kinase SYK (Homo sapiens, UniProt P43405); experiment: Selectivity interaction (Kinase panel (Invitrogen)) EUB0000639a SYK; details: at 200 nM
[5] = biological target: T2, Ephrin type-A receptor 3 (Homo sapiens) (UniProt P29320); details: at 10 µM
T2 sequence (whole entry): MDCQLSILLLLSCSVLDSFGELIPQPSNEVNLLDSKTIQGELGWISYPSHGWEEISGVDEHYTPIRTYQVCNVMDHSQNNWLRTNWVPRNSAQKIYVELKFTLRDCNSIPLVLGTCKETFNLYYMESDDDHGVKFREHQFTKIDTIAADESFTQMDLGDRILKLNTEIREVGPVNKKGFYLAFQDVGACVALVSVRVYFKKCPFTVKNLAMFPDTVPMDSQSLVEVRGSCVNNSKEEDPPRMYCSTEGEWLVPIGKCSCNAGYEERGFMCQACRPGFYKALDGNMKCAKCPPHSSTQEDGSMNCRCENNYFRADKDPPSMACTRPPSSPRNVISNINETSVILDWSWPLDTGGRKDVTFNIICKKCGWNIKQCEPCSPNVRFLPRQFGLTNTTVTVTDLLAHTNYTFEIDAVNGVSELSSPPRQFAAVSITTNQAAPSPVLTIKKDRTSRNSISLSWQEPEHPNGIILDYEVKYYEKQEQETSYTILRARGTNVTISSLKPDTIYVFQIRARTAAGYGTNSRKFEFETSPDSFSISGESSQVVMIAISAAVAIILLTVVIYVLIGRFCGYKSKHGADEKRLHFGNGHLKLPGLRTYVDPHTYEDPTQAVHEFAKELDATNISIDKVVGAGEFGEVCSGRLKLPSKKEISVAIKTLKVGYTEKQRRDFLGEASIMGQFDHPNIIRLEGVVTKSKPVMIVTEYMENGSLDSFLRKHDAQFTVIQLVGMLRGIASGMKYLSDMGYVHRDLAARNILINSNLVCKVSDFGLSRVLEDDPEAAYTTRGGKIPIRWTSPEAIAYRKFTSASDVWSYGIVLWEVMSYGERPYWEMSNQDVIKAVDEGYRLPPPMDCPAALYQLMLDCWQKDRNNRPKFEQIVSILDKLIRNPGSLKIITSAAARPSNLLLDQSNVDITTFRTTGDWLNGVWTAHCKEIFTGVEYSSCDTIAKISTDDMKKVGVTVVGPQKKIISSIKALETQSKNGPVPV

Chain of Angiopoietin-1 receptor (Homo sapiens) (Q02763 whole entry): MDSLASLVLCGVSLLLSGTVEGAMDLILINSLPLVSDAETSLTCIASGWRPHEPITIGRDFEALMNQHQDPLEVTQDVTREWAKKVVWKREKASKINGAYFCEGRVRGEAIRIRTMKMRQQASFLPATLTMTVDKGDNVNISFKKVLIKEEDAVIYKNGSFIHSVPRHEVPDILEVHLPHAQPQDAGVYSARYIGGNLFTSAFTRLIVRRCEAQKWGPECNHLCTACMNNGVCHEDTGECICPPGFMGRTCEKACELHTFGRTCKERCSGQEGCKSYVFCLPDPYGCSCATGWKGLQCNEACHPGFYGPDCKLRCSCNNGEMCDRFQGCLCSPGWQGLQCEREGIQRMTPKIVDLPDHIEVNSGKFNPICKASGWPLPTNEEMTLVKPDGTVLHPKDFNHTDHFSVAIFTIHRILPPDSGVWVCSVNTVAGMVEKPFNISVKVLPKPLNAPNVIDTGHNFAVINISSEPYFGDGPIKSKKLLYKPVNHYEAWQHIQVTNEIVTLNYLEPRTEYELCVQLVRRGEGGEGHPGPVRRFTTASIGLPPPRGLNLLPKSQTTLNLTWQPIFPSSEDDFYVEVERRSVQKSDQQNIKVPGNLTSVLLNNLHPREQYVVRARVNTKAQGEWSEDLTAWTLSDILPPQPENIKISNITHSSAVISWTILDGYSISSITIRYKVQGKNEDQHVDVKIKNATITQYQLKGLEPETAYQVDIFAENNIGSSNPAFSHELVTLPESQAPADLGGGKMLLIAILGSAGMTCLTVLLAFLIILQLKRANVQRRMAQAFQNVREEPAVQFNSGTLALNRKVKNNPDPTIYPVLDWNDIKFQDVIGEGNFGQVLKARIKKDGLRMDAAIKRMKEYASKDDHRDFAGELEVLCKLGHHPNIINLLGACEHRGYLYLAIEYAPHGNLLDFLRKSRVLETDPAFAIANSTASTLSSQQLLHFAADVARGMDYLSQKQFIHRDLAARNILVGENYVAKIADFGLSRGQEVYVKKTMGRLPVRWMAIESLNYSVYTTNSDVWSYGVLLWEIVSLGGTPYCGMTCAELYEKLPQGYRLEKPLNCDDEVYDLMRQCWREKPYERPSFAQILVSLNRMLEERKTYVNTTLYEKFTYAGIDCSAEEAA
Chain of Phosphatidylinositol 4-phosphate 5-kinase type-1 alpha (Homo sapiens) (Q99755 whole entry): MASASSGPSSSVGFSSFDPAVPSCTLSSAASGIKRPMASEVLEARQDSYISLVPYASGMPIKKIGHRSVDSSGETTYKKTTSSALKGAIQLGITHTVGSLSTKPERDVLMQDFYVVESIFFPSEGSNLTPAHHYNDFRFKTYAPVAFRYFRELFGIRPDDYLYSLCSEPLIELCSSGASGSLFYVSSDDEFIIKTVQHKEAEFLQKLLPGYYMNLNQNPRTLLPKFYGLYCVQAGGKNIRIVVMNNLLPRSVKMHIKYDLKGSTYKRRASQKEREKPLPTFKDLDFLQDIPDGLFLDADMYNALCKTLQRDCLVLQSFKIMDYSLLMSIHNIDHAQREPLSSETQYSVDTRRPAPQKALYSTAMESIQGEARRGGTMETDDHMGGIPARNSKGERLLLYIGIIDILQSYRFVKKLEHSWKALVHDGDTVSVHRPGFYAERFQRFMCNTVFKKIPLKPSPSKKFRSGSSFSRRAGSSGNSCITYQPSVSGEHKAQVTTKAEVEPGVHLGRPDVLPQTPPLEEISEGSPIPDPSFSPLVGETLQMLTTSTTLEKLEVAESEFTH

Work on `COc1cc(N(C)c2ccnc3ccc(C(F)(F)F)cc23)cc(OC)c1OC` yielded a % binding [1] of 72%.

`Cn1cc(-n2cnc3c(NCc4nc5cc(Cl)c(Cl)cc5[nH]4)nc(N4CCOCC4)nc32)cn1` was tested, and the % of inhibition [2] was -14.8%.

For `COc1cc(Nc2nc(C)cc(-c3cnn4nc(OC)ccc34)n2)cc(C(F)(F)F)c1`, the % of control [3] was 81%.

For `CC[C@@H]1[C@H](F)C(=O)N[C@@H]1COc1nccc2cc(C(N)=O)c(OC)cc12` [ZIMLOVISERTIB], the % of inhibition [4] was 9.07%.

`CCN(CC)CCCCNc1ncc2cc(-c3cc(OC)cc(OC)c3)c(NC(=O)NC(C)(C)C)nc2n1` gave a % of control [5] of 100%.
